Reference: patent US20080312255A1 (ASTRAZENECA AB, priority 2007, published 2008)

Target: S. aureus GyrB ATPase (Staphylococcus aureus, UniProt P0A0K8)
Experiment: S. aureus GyrB ATPase inhibition (ammonium molybdate/malachite green phosphate detection)
Assay type: biochemical
Conditions: compound concentration of 1 μM
Experimental: S. aureus GyrB ATPase Inhibition Activity: Compounds may be tested for inhibition of S. aureus GyrB ATPase activity using an ammonium molybdate/malachite green-based phosphate detection assay (Lanzetta, P. A., L. J. Alvarez, P. S. Reinach, and O. A. Candia, 1979, 100: 95-97). Assays can be performed in multiwell plates in 30 μl reactions containing: 50 mM Hepes buffer pH 7.5, 75 mM ammonium acetate, 8.0 mM magnesium chloride, 0.5 mM ethylenediaminetetraacetic acid, 5% glycerol, 1.0 mM 1,4-Dithio-DL-threitol, 200 nM bovine serum albumin, 1.0 μg/ml sheared salmon sperm DNA, 250 pM E. coli GyrA, 250 pM S. aureus GyrB, 250 μM ATP, and compound in dimethylsulfoxide. Reactions can be quenched with […] of ammonium molybdate/malachite green detection reagent containing 1.2 mM malachite green hydrochloride, 8.5 mM ammonium molybdate tetrahydrate, and 1 M hydrochloric acid. Plates can be read in an absorbance plate reader at 650 nm and percent inhibition values can be calculated using dimethylsulfoxide (2%)-containing reactions as 0% inhibition and EDTA-containing ([…]) reactions as 100% inhibition controls. An IC50 measurement of compound potency for each compound can be determined from reactions performed in the presence of 10 different compound concentrations.
Compounds of the invention were tested in an assay substantially similar to the assay described above for measuring the inhibition of S. aureus GyrB ATPase. Percent inhibition of S. aureus GyrB ATPase at a compound concentration of 1 μM (unless otherwise noted) is disclosed in the following table: […]

Chain of S. aureus GyrB ATPase (P0AES4 whole entry): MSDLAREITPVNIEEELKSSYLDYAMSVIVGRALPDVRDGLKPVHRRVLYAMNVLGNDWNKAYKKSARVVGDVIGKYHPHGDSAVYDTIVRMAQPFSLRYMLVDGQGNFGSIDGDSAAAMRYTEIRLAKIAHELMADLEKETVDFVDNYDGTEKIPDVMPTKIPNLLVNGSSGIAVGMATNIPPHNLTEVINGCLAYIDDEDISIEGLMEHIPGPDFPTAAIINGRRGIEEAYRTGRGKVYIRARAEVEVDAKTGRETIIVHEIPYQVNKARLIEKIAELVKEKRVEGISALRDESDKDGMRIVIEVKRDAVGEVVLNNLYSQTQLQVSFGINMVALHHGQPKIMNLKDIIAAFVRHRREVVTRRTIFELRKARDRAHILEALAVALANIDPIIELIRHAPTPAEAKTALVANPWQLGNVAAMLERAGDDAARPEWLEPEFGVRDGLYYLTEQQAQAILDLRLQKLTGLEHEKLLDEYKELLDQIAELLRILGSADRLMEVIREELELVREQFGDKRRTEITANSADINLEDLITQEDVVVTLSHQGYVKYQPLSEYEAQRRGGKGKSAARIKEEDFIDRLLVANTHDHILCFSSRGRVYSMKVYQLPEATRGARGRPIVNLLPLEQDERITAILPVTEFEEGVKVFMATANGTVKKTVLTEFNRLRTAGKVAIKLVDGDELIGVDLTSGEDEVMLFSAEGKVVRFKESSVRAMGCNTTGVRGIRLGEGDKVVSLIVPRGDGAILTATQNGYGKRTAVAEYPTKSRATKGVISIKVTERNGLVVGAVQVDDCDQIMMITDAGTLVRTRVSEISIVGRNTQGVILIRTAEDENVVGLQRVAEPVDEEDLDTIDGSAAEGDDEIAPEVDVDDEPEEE
Chain of S. aureus GyrB ATPase (P0A0K8 whole entry): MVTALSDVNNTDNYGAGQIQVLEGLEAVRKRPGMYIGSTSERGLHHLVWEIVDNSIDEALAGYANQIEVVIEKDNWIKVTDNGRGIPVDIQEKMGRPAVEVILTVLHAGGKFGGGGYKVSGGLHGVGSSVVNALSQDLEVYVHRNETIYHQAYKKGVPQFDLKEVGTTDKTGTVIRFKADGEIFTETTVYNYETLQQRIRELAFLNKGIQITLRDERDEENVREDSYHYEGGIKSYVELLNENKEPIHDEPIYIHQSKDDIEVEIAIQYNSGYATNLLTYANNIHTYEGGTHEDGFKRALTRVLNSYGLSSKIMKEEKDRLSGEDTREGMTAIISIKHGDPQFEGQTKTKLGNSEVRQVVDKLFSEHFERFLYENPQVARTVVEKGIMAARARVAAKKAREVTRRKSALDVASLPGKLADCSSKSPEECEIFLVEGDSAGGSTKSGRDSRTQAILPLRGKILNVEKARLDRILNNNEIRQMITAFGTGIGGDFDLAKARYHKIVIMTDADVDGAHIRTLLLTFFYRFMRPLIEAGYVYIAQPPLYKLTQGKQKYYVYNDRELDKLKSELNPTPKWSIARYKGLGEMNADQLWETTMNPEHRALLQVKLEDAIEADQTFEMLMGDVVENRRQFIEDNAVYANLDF

Structure (SMILES) | inhibition at 1 µM [%]
CO[C@H]1CN(c2nc(-c3ncnn3C)c(C(=O)O)s2)CC[C@H]1NC(=O)c1[nH]c(C)c(Cl)c1C#N [Example 121, 2-((3S,4R)-4-(4-chloro-3-cyano-5-methyl-1H-pyrrole-2-carboxamido)-3-methoxypiperidin-1-yl)-4-(1-methyl-1H-1,2,4-triazol-5-yl)thiazole-5-carboxylic acid] | 103
Cc1[nH]c(C(=O)N[C@@H]2CCN(c3nc(-c4ncccn4)c(C(=O)O)s3)C[C@@H]2F)c(Cl)c1Cl [Example 4, 2-((3S,4R)-4-{[(3,4-Dichloro-5-methyl-1H-pyrrol-2-yl)carbonyl]amino}-3-fluoropiperidin-1-yl)-4-pyrimidin-2-yl-1,3-thiazole-5-carboxylic acid] | 97.7
Cc1[nH]c(C(=O)N[C@@H]2CCN(c3nc(-c4cnccn4)c(C(=O)O)s3)C[C@@H]2OCc2ccccc2)c(Cl)c1Cl [Example 145, 2-[(3S,4R)-3-(benzyloxy)-4-{[(3,4-dichloro-5-methyl-1H-pyrrol-2-yl)carbonyl]amino}piperidin-1-yl]-4-(pyrazin-2-yl)-1,3-thiazole-5-carboxylic acid] | 113
CO[C@H]1CN(c2nc(-c3ccccn3)c(C(=O)O)s2)CC[C@H]1NC(=O)c1[nH]c(C)c(Cl)c1Cl [Example 7, 2-((3S,4R)-4-{[(3,4-Dichloro-5-methyl-1H-pyrrol-2-yl)carbonyl]amino}-3-methoxypiperidin-1-yl)-4-pyridin-2-yl-1,3-thiazole-5-carboxylic acid] | 97.1
CO[C@H]1CN(c2nc(-c3nccn3COCC[Si](C)(C)C)c(C(=O)O)s2)CC[C@H]1NC(=O)c1[nH]c(C)c(Cl)c1Cl [Example 16, 2-((3S,4R)-4-{[(3,4-Dichloro-5-methyl-1H-pyrrol-2-yl)carbonyl]amino}-3-methoxypiperidin-1-yl)-4-(1-{[2-(trimethylsilyl)ethoxy]methyl}-1H-imidazol-2-yl)-1,3-thiazole-5-carboxylic acid] | 100
CO[C@H]1CN(c2nc(-c3cnccn3)c(C(=O)O)s2)CC[C@H]1NC(=O)c1[nH]c(C)c(Cl)c1Cl [Example 12, 2-((3S,4R)-4-{[(3,4-Dichloro-5-methyl-1H-pyrrol-2-yl)carbonyl]amino}-3-methoxypiperidin-1-yl)-4-pyrazin-2-yl-1,3-thiazole-5-carboxylic acid] | 105
CO[C@H]1CN(c2nc(-c3nc(C)c(C)n3C)c(C(=O)O)s2)CC[C@H]1NC(=O)c1[nH]c(C)c(Cl)c1Cl [Example 32, 2-((3S,4R)-4-{[(3,4-Dichloro-5-methyl-1H-pyrrol-2-yl)carbonyl]amino}-3-methoxypiperidin-1-yl)-4-(1,4,5-trimethyl-1H-imidazol-2-yl)-1,3-thiazole-5-carboxylic acid] | 99.9
CO[C@H]1CN(c2nc(-c3cc(N(C)C)nc(N(C)C)n3)c(C(=O)O)s2)CC[C@H]1NC(=O)c1[nH]c(C)c(Cl)c1Cl [Example 9, 4-[2,6-Bis(dimethylamino)pyrimidin-4-yl]-2-((3S,4R)-4-{[(3,4-dichloro-5-methyl-1H-pyrrol-2-yl)carbonyl]amino}-3-methoxypiperidin-1-yl)-1,3-thiazole-5-carboxylic acid] | 102
Cc1[nH]c(C(=O)N[C@@H]2CCN(c3nc(-c4cnccn4)c(C(=O)O)s3)C[C@@H]2F)c(Cl)c1Cl [Example 14] | 98.3
CO[C@H]1CN(c2nc(-c3nc4ccccc4s3)c(C(=O)O)s2)CC[C@H]1NC(=O)c1[nH]c(C)c(Cl)c1Cl [Example 13, 4-(1,3-Benzothiazol-2-yl)-2-((3S,4R)-4-{[(3,4-dichloro-5-methyl-1H-pyrrol-2-yl)carbonyl]amino}-3-methoxypiperidin-1-yl)-1,3-thiazole-5-carboxylic acid] | 101
COc1ccnc(-c2nc(N3CC[C@@H](NC(=O)c4[nH]c(C)c(Cl)c4Cl)[C@@H](OC)C3)sc2C(=O)O)c1 [Example 112, 2-((3S,4R)-4-(3,4-dichloro-5-methyl-1H-pyrrole-2-carboxamido)-3-methoxypiperidin-1-yl)-4-(4-methoxypyridin-2-yl)thiazole-5-carboxylic acid] | 81.1
CNc1nc(-c2nc(N3CC[C@@H](NC(=O)c4[nH]c(C)c(Cl)c4Cl)[C@@H](F)C3)sc2C(=O)OC)cs1 [Example 75] | 93.1
Cc1[nH]c(C(=O)N[C@@H]2CCN(c3nc(-c4cc(N(C)C)nc(N(C)C)n4)c(C(=O)O)s3)C[C@@H]2F)c(Cl)c1Cl [Example 10, 4-[2,6-Bis(dimethylamino)pyrimidin-4-yl]-2-((3S,4R)-4-{[(3,4-dichloro-5-methyl-1H-pyrrol-2-yl)carbonyl]amino}-3-fluoropiperidin-1-yl)-1,3-thiazole-5-carboxylic acid] | 101
COC(=O)c1sc(N2CC[C@@H](NC(=O)c3[nH]c(C)c(Cl)c3Cl)[C@@H](OC)C2)nc1-c1ncnn1C [Example 66] | 101
CCCO[C@H]1CN(c2nc(-c3ncnn3C)c(C(=O)O)s2)CC[C@H]1NC(=O)c1[nH]c(C)c(Cl)c1Cl [Example 159, 2-[(3S,4R)-4-{[(3,4-dichloro-5-methyl-1H-pyrrol-2-yl)carbonyl]amino}-3-propoxypiperidin-1-yl]-4-(1-methyl-1H-1,2,4-triazol-5-yl)-1,3-thiazole-5-carboxylic acid] | 31
COC(=O)c1sc(N2CC[C@@H](NC(=O)c3[nH]c(C)c(Cl)c3Cl)[C@@H](OC)C2)nc1-c1ccno1 [Example 60] | 104
Cc1[nH]c(C(=O)N[C@@H]2CCN(c3nc(-c4cn(C)nn4)c(C(=O)O)s3)C[C@@H]2F)c(Cl)c1Cl [Example 116, 2-((3S,4R)-4-(3,4-dichloro-5-methyl-1H-pyrrole-2-carboxamido)-3-fluoropiperidin-1-yl)-4-(1-methyl-1H-1,2,3-triazol-4-yl)thiazole-5-carboxylic acid] | 101
CO[C@H]1CN(c2nc(-c3ncc[nH]3)c(C(=O)O)s2)CC[C@H]1NC(=O)c1[nH]c(C)c(Cl)c1Cl [Example 18, 2-((3S,4R)-4-{[(3,4-Dichloro-5-methyl-1H-pyrrol-2-yl)carbonyl]amino}-3-methoxypiperidin-1-yl)-4-(1H-imidazol-2-yl)-1,3-thiazole-5-carboxylic acid] | 101
COC(=O)c1sc(N2CC[C@@H](NC(=O)c3[nH]c(C)c(Cl)c3Cl)[C@@H](OC)C2)nc1-c1ncc[nH]1 [Example 86, Methyl 2-((3S,4R)-4-{[(3,4-dichloro-5-methyl-1H-pyrrol-2-yl)carbonyl]amino}-3-methoxypiperidin-1-yl)-4-(1H-imidazol-2-yl)-1,3-thiazole-5-carboxylate] | 99.9
COC(=O)c1sc(N2CC[C@@H](NC(=O)c3[nH]c(C)c(Cl)c3Cl)[C@@H](F)C2)nc1-c1csc(N)n1 [Example 74] | 100
CO[C@H]1CN(c2nc(-c3ccn[nH]3)c(C(=O)O)s2)CC[C@H]1NC(=O)c1[nH]c(C)c(Cl)c1Cl [Example 23, 2-((3S,4R)-4-{[(3,4-Dichloro-5-methyl-1H-pyrrol-2-yl)carbonyl]amino}-3-methoxypiperidin-1-yl)-4-(1H-pyrazol-5-yl)-1,3-thiazole-5-carboxylic acid] | 100
CO[C@H]1CN(c2nc(-c3ncccn3)c(C(=O)O)s2)CC[C@H]1NC(=O)c1[nH]c(C)c(Cl)c1Cl [Example 1, 2-((3S,4R)-4-{[(3,4-Dichloro-5-methyl-1H-pyrrol-2-yl)carbonyl]amino}-3-methoxypiperidin-1-yl)-4-pyrimidin-2-yl-1,3-thiazole-5-carboxylic acid] | 99.2
CO[C@H]1CN(c2nc(-c3cnc(C)cn3)c(C(=O)O)s2)CC[C@H]1NC(=O)c1[nH]c(C)c(Cl)c1Cl [Example 113, 2-((3S,4R)-4-(3,4-dichloro-5-methyl-1H-pyrrole-2-carboxamido)-3-methoxypiperidin-1-yl)-4-(5-methylpyrazin-2-yl)thiazole-5-carboxylic acid] | 92.9
CO[C@H]1CN(c2nc(-c3cnc(C)cn3)c(C(=O)O)s2)CC[C@H]1NC(=O)c1[nH]c(C)c(Cl)c1C#N [Example 124, 2-((3S,4R)-4-(4-chloro-3-cyano-5-methyl-1H-pyrrole-2-carboxamido)-3-methoxypiperidin-1-yl)-4-(5-methylpyrazin-2-yl)thiazole-5-carboxylic acid] | 104
COC(=O)c1sc(N2CC[C@@H](NC(=O)c3[nH]c(C)c(Cl)c3Cl)[C@@H](OC)C2)nc1-c1nc(C)c(C)n1C [Example 70] | 99.5
COC(=O)c1sc(N2CC[C@@H](NC(=O)c3[nH]c(C)c(Cl)c3Cl)[C@@H](F)C2)nc1-c1nccn1C [Example 79] | 101
COCCn1ccnc1-c1nc(N2CC[C@@H](NC(=O)c3[nH]c(C)c(Cl)c3Cl)[C@@H](OCc3ccccc3)C2)sc1C(=O)O [Example 143, 2-[(3S,4R)-3-(benzyloxy)-4-{[(3,4-dichloro-5-methyl-1H-pyrrol-2-yl)carbonyl]amino}piperidin-1-yl]-4-[1-(2-methoxyethyl)-1H-imidazol-2-yl]-1,3-thiazole-5-carboxylic acid] | 98.8
